Measured values as given in US4520026A, “Indolizine derivatives and use as cardiovascular agents” (S. A. Labaz N.V., priority 1982, dated 1985).

Assays:
[1] = system: blood-flow to the myocardium; experiment: Effect on blood-flow to the myocardium, anaesthetized dogs, intravenous; type: in vivo, dog; conditions: anaesthetized dog
Protocol: It was undertaken on anaesthetized dogs which received the substance under study by intravenous route. The intensity of the maximum effect on blood-flow to the myocardium was expressed in percentage of the corresponding value before injection. The time required for the maximum effect to decrease by 50% represented the duration of the effect. This time was measured in minutes.

[2] = system: epinephrine-accelerated heart rate (anti-β effect); experiment: Antiadrenergic effect: anti-β effect (reduction of epinephrine-accelerated heart rate); type: in vivo; conditions: dog
Protocol: (§1) The purpose of this test was to determine the capacity of the compounds under study to reduce epinephrine-increased blood-pressure (anti-α effect) and epinephrine-accelerated heart rate (anti-β effect) in the dog previously anaesthetized with pentobarbital and atropinized.
(§2) For each dog, the dose of epinephrine was first determined which provoked a reproductible increase by about 100 mm. Hg in the arterial pressure (between 5 and 10 μg/kg). After that, the dose of epinephrine so determined was administered followed by a dose by intravenous route of the compound to be studied. The percentage of reduction of the hypertension provoked by the compound under study in comparison with the hypertension previously obtained (about 100 mm. Hg) was then registered.
(§3) The percentage of reduction of the epinephrine-induced acceleration of heart-rate produced by the compound under study in comparison with the tachycardia previously measured (about 70 beats) was then registered. In both cases, the results were expressed as follows: […]
(§4) + for a <50%-reduction of the increase in pressure or cardiac frequency
(§5) ++ for a ≥50%-reduction of the increase in pressure or cardiac frequency
(§6) +++ for a subtotal reduction of the increase in pressure or cardiac frequency

[3] = system: epinephrine-increased blood-pressure (anti-α effect); experiment: Antiadrenergic effect: anti-α effect (reduction of epinephrine-increased blood-pressure); type: in vivo; conditions: dog
Protocol: as §1, §2, §3, §4, §5, §6

[4] = Canis lupus familiaris, iv, dose 10 mg/kg i.v., read-out: Max. increase (blood-flow to the myocardium)
[5] = Canis lupus familiaris, iv, dose 5 mg/kg i.v., read-out: Max. increase (blood-flow to the myocardium)
[6] = Canis lupus familiaris, iv, dose 10 mg/kg i.v.
[7] = Canis lupus familiaris, iv, dose 7.5 mg/kg i.v.
[8] = Canis lupus familiaris, iv, dose 8.76 mg/kg i.v.

CCCN(CCC)CCCOc1ccc(C(=O)c2c(-c3ccccc3)c(Br)c3ccccn23)cc1Br [Br/Br/H/drawing 11/n-C3H7/3, 1-Bromo-2-phenyl-3-[4-(3-di-n-propylaminopropyl)-oxy-3-bromo-benzoyl]-indolizine]
change in vivo at 10 mg/kg [1, 4]: 100% | Time required to decrease to 50% (duration of effect) ([1]; dose 10 mg/kg i.v.): 20 min

CCCCN(CCCC)CCCOc1ccc(C(=O)c2c(-c3cccc(Br)c3)c(Br)c3ccccn23)cc1Br [Br/Br/H/drawing 12/n-C4H9/3]
change in vivo at 10 mg/kg [1, 4]: 150% | Time required to decrease to 50% (duration of effect) ([1]; dose 10 mg/kg i.v.): 100 min

CCCc1c(Br)c2ccccn2c1C(=O)c1ccc(OCCCN(CCC)CCC)c(Br)c1 [Br/Br/H/n-C3H7/n-C3H7/3, 1-Bromo-2-n-propyl-3-[4-(3-di-n-propylaminopropyl)-oxy-3-bromo-benzoyl]-indolizine]
change in vivo at 10 mg/kg [1, 4]: 90% | Time required to decrease to 50% (duration of effect) ([1]; dose 10 mg/kg i.v.): 20 min

CCCCc1c(Br)c2ccccn2c1C(=O)c1ccc(OCCCN(CCC)CCC)c(Br)c1 [Br/Br/H/n-C4H9/n-C3H7/3, 1-Bromo-2-n-butyl-3-[4-(3-di-n-propylaminopropyl)-oxy-3-bromo-benzoyl]-indolizine]
change in vivo at 10 mg/kg [1, 4]: 100% | Time required to decrease to 50% (duration of effect) ([1]; dose 10 mg/kg i.v.): 20 min

CCCCN(CCCC)CCCOc1ccc(C(=O)c2c(-c3ccccc3)c(Br)c3ccccn23)cc1Cl [Br/Cl/H/drawing 17/n-C4H9/3]
change in vivo at 10 mg/kg [1, 4]: 90% | Time required to decrease to 50% (duration of effect) ([1]; dose 10 mg/kg i.v.): 90 min

CCCN(CCC)CCCOc1ccc(C(=O)c2c(-c3ccc(Br)cc3)c(Br)c3ccccn23)cc1Cl [Br/Cl/H/drawing 18/n-C3H7/3]
change in vivo at 10 mg/kg [1, 4]: 50% | Time required to decrease to 50% (duration of effect) ([1]; dose 10 mg/kg i.v.): 50 min

CCCN(CCC)CCCOc1ccc(C(=O)c2c(-c3ccc(Cl)cc3)c(Br)c3ccccn23)cc1Cl [Br/Cl/H/drawing 19/n-C3H7/3]
change in vivo at 10 mg/kg [1, 4]: 63% | Time required to decrease to 50% (duration of effect) ([1]; dose 10 mg/kg i.v.): 45 min

CCCCN(CCCC)CCCOc1ccc(C(=O)c2c(C(C)C)c(Br)c3ccccn23)cc1Cl [Br/Cl/H/iso-C3H7/n-C4H9/3, 1-Bromo-2-isopropyl-3-[4-(3-di-n-butylaminopropyl)-oxy-3-chloro-benzoyl]-indolizine]
change in vivo at 5 mg/kg [1, 5]: 133% | Time required to decrease to 50% (duration of effect) ([1]; dose 5 mg/kg i.v.): 20 min

CCCN(CCC)CCCOc1ccc(C(=O)c2c(-c3cccc(Br)c3)c(Cl)c3ccccn23)cc1Cl [Cl/Cl/H/drawing 21/n-C3H7/3, 1-Chloro-2-(3-bromo-phenyl)-3-[4-(3-di-n-propylaminopropyl)-oxy-3-chloro-benzoyl]-indolizine]
change in vivo at 8 mg/kg ([1]; Canis lupus familiaris, iv, dose 8 mg/kg i.v., read-out: Max. increase (blood-flow to the myocardium)): 70% | Time required to decrease to 50% (duration of effect) ([1]; dose 8 mg/kg i.v.): 90 min

CCCN(CCC)CCCOc1ccc(C(=O)c2c(-c3ccc(Cl)cc3)c(Cl)c3ccccn23)cc1 [Cl/H/H/drawing 22/n-C3H7/3]
change in vivo at 5 mg/kg [1, 5]: 50% | Time required to decrease to 50% (duration of effect) ([1]; dose 5 mg/kg i.v.): 40 min

CCCCN(CCCC)CCCOc1ccc(C(=O)c2c(CCC)c(Cl)c3ccccn23)cc1 [Cl/H/H/n-C3H7/n-C4H9/3, 1-Chloro-2-n-propyl-3-[4-(3-di-n-butylaminopropyl)-oxy-benzoyl]-indolizine]
Anti-β effect ([2]; dose 7.5 mg/kg i.v.): +++ | Anti-α effect ([3]; dose 7.5 mg/kg i.v.): +++

CCCN(CCC)CCCOc1c(Br)cc(C(=O)c2c(-c3ccc(Br)cc3)cc3ccccn23)cc1Br [H/Br/Br/drawing 41/n-C3H7/3]
Anti-β effect ([2]; dose 10 mg/kg i.v.): +++ | Anti-α effect ([3]; dose 10 mg/kg i.v.): +++

CCCCN(CCCC)CCCOc1c(Br)cc(C(=O)c2c(-c3ccccc3)cc3ccccn23)cc1Br [H/Br/Br/drawing 42/n-C4H9/3]
inhibition in vivo at 10 mg/kg [2, 6]: > 50% | inhibition in vivo at 10 mg/kg [3, 6]: > 50%

CCCCN(CCCC)CCCOc1ccc(C(=O)c2c(CC)cc3ccccn23)cc1Br [H/Br/H/C2H5/n-C4H9/3, 2-Ethyl-3-[4-(3-di-n-butylaminopropyl)-oxy-3-bromo-benzoyl]-indolizine]
inhibition in vivo at 7.5 mg/kg [2, 7]: > 50% | Anti-α effect ([3]; dose 7.5 mg/kg i.v.): +++

CCCCN(CCCC)CCCOc1ccc(C(=O)c2c(-c3ccc(Br)cc3)cc3ccccn23)cc1Br [H/Br/H/drawing 13/n-C4H9/3]
change in vivo at 10 mg/kg [1, 4]: 90% | Time required to decrease to 50% (duration of effect) ([1]; dose 10 mg/kg i.v.): 25 min

CCCCN(CCCC)CCCOc1ccc(C(=O)c2c(-c3ccccc3)cc3ccccn23)cc1Br [H/Br/H/drawing 24/n-C4H9/3]
inhibition in vivo at 10 mg/kg [2, 6]: > 50% | Anti-α effect ([3]; dose 10 mg/kg i.v.): +++

CCCN(CCC)CCCOc1ccc(C(=O)c2c(C(C)C)cc3ccccn23)cc1Br [H/Br/H/iso-C3H7/n-C3H7/3, 2-Isopropyl-3-[4-(3-di-n-propylaminopropyl)-oxy-3-bromo-benzoyl]-indolizine]
inhibition in vivo at 7.5 mg/kg [2, 7]: > 50% | Anti-α effect ([3]; dose 7.5 mg/kg i.v.): +++

CCCCN(CCCC)CCCOc1ccc(C(=O)c2c(C(C)C)cc3ccccn23)cc1Br [H/Br/H/iso-C3H7/n-C4H9/3]
inhibition in vivo at 6 mg/kg ([2]; Canis lupus familiaris, iv, dose 6 mg/kg i.v.): > 50% | Anti-α effect ([3]; dose 6 mg/kg i.v.): +++

CCCCN(CCCC)CCCOc1ccc(C(=O)c2c(CCC)cc3ccccn23)cc1Br [H/Br/H/n-C3H7/n-C4H9/3, 2-n-Propyl-3-[4-(3-di-n-butylaminopropyl)-oxy-3-bromo-benzoyl]-indolizine]
change in vivo at 2 mg/kg ([1]; Canis lupus familiaris, iv, dose 2 mg/kg i.v., read-out: Max. increase (blood-flow to the myocardium)): 120% | Time required to decrease to 50% (duration of effect) ([1]; dose 2 mg/kg i.v.): 25 min

CCCCc1cc2ccccn2c1C(=O)c1ccc(OCCCN(CCC)CCC)c(Br)c1 [H/Br/H/n-C4H9/n-C3H7/3, 2-n-Butyl-3-[4-(3-di-n-propylaminopropyl)-oxy-3-bromo-benzoyl]-indolizine]
inhibition in vivo at 5 mg/kg ([2]; Canis lupus familiaris, iv, dose 5 mg/kg i.v.): > 50% | Anti-α effect ([3]; dose 5 mg/kg i.v.): +++

CCCCN(CCCC)CCCOc1ccc(C(=O)c2c(CC)cc3ccccn23)cc1C [H/CH3/H/C2H5/n-C4H9/3, 2-Ethyl-3-[4-(3-di-n-butylaminopropyl)-oxy-3-methyl-benzoyl]-indolizine]
Anti-β effect ([2]; dose 10 mg/kg i.v.): +++ | Anti-α effect ([3]; dose 10 mg/kg i.v.): +++

CCCCN(CCCC)CCCOc1ccc(C(=O)c2c(C)cc3ccccn23)cc1C [H/CH3/H/CH3/n-C4H9/3, 2-Methyl-3-[4-(3-di-n-butylaminopropyl)-oxy-3-methyl-benzoyl]-indolizine]
inhibition in vivo at 8.76 mg/kg [2, 8]: > 50% | inhibition in vivo at 8.76 mg/kg [3, 8]: > 50%

CCCCN(CCCC)CCCOc1ccc(C(=O)c2c(C(C)C)cc3ccccn23)cc1C [H/CH3/H/iso-C3H7/n-C4H9/3, 2-Isopropyl-3-[4-(3-di-n-butylaminopropyl)-oxy-3-methyl-benzoyl]-indolizine]
Anti-β effect ([2]; dose 7.5 mg/kg i.v.): +++ | Anti-α effect ([3]; dose 7.5 mg/kg i.v.): +++

CCCCc1cc2ccccn2c1C(=O)c1ccc(OCCCN(CCCC)CCCC)c(C)c1 [H/CH3/H/n-C4H9/n-C4H9/3, 2-n-Butyl-3-[4-(3-di-n-butylaminopropyl)-oxy-3-methyl-benzoyl]-indolizine]
inhibition in vivo at 10 mg/kg [2, 6]: > 50% | inhibition in vivo at 10 mg/kg [3, 6]: > 50%

CCCCN(CCCC)CCCOc1c(Cl)cc(C(=O)c2c(-c3ccc(Br)cc3)cc3ccccn23)cc1Cl [H/Cl/Cl/drawing 14/n-C4H9/3]
change in vivo at 10 mg/kg [1, 4]: 45% | Time required to decrease to 50% (duration of effect) ([1]; dose 10 mg/kg i.v.): 15 min

CCCN(CCC)CCCOc1ccc(C(=O)c2c(CC)cc3ccccn23)cc1Cl [H/Cl/H/C2H5/n-C3H7/3, 2-Ethyl-3-[4-(3-di-n-propylaminopropyl)-oxy-3-chloro-benzoyl]-indolizine]
inhibition in vivo at 10 mg/kg [2, 6]: > 50% | inhibition in vivo at 10 mg/kg [3, 6]: > 50%

CCCCN(CCCC)CCCOc1ccc(C(=O)c2c(-c3cccc(Br)c3)cc3ccccn23)cc1Cl [H/Cl/H/drawing 15/n-C4H9/3]
change in vivo at 10 mg/kg [1, 4]: 30% | Time required to decrease to 50% (duration of effect) ([1]; dose 10 mg/kg i.v.): 45 min

CCCCN(CCCC)CCCOc1ccc(C(=O)c2c(-c3cccc(Br)c3)cc3ccccn23)cc1Cl [H/Cl/H/drawing 25/n-C4H9/3]
inhibition in vivo at 10 mg/kg [2, 6]: > 50% | inhibition in vivo at 10 mg/kg [3, 6]: > 50%

CCCCN(CCCC)CCCOc1ccc(C(=O)c2c(-c3ccc(Br)cc3)cc3ccccn23)cc1Cl [H/Cl/H/drawing 31/n-C4H9/3]
inhibition in vivo at 10 mg/kg [2, 6]: < 50% | inhibition in vivo at 10 mg/kg [3, 6]: > 50%

CCCCN(CCCC)CCCOc1ccc(C(=O)c2c(CC)cc3ccccn23)cc1OC [H/OCH3/H/C2H5/n-C4H9/3, 2-Ethyl-3-[4-(3-di-n-butylaminopropyl)-oxy-3-methoxy-benzoyl]-indolizine]
inhibition in vivo at 10 mg/kg [2, 6]: > 50% | Anti-α effect ([3]; dose 10 mg/kg i.v.): +++

CCCN(CCC)CCCOc1ccc(C(=O)c2c(-c3ccccc3)c(OC)c3ccccn23)cc1Cl [OCH3/Cl/H/drawing 43/n-C3H7/3, 1-Methoxy-2-phenyl-3-[4-(3-di-n-propylaminopropyl)-oxy-3-chloro-benzoyl]-indolizine]
Anti-β effect ([2]; dose 10 mg/kg i.v.): +++ | Anti-α effect ([3]; dose 10 mg/kg i.v.): +++

CCCN(CCC)CCCOc1ccc(C(=O)c2c(-c3ccccc3)c(OC)c3ccccn23)cc1OC [OCH3/OCH3/H/drawing 44/n-C3H7/3]
inhibition in vivo at 10 mg/kg [2, 6]: > 50% | inhibition in vivo at 10 mg/kg [3, 6]: > 50%
